The source of these data is patent US10604490B2, “Processes for preparing ASK1 inhibitors” (Gilead Sciences, Inc., priority 2014, dated 2020).

Values after ≈ are worked out from the molar mass of the structure shown. Read-outs that look alike come from different tables or passages of the source.

As usually defined, the Solubility is the concentration that dissolves in the medium under given conditions.

The nature of data set [1]: Hydrate screen: solubility in EtOH/water mixtures with different water activities. The format is physicochemical. The note with it: thermodynamic from solid, slurry at room temperature. As to the method:
A hydrate screen of Compound of Formula (D) was performed using a mixture of anhydrous forms of Compound of Formula (D) Form II and of Compound of Formula (D) Form I and EtOH/water solvent mixtures with different water activities (Table 1). Compound of Formula (D) Form II and Compound of Formula (D) Form I (about 20 to about 40 mg) was slurried in about 1 mL of EtOH/water or water. Samples were analyzed after about 1 day and after about 2 weeks of equilibration at room temperature. Pure anhydrous Compound of Formula (D) Form I was obtained after 1 day in mixtures with about 0.2 to about 0.4 water activity. However, after 2 weeks of equilibration a new form was obtained in EtOH/water with 0.4 water activity. This form was designated as Compound of Formula (D) Form III. Compound of Formula (D) hydrate Form I was obtained in solvents with about 0.5 to about 1.0 water activity after 1 day and after about 2 weeks.

A short description of data set [2]: DVS analysis (moisture uptake). The data set is classed as physicochemical. The note with it: at 90% RH. As to the method:
Compound of Formula (D) Form I was obtained after the isothermal hold of Compound of Formula (D) hydrate Form I at about 150° C. Compound of Formula (D) Form I was also obtained after KF analysis of Compound of Formula (D) Form II and Compound of Formula (D) Form I at about 180° C. Slurries of Compound of Formula (D) hydrate Form I in water miscible organic solvents also afforded Compound of Formula (D) Form I (MeCN, MeOH, EtOH, IPA, acetone, and THF). […] (FIG. 10). DSC thermogram afforded single endotherm with onset at about 252° C. (FIG. 11). […] No form change was observed after DVS.

The conditions of data set [3]: slurry at room temperature. On the procedure:
A stable form screen of Compound of Formula (D) hydrate Form I was performed in an attempt to determine the stability of Compound of Formula (D) hydrate Form I in different organic solvents. […] Compound of Formula (D) hydrate Form I (about 50 to about 60 mg) was slurried in about 1 mL of chosen solvent. Solids were analyzed by XRPD after about 1 day and about 2 weeks of equilibration at room temperature.
A stable form screen of Compound of Formula (D) hydrate Form I was performed in an attempt to determine the stability of Compound of Formula (D) hydrate Form I in different organic solvents. […] Compound of Formula (D) hydrate Form I (about 50 to about 60 mg) was slurried in 1 mL of chosen solvent. Solids were analyzed by XRPD after 1 day and 2 weeks of equilibration at room temperature.

As for `Cc1cc(F)c(C(=O)O)cc1-n1cnc(C2CC2)c1` [5-(4-cyclopropyl-1H-imidazol-1-1-2-fluoro-4-methylbenzoic acid], the Solubility in data set [1] (EtOH/water solvent mixture, aqueous with cosolvent or surfactant or cyclodextrin, EtOH/water, water activity 0.9 (water 0.825 mL, EtOH 0.175 mL)) was determined as 3930 µg/mL (≈ 15.1 mM); in data set [1] (EtOH/water solvent mixture, organic solvent or mixture, EtOH/water, water activity 0.2 (water 0.031 mL, EtOH 0.969 mL)), 7270 µg/mL (≈ 27.9 mM); in data set [1] (EtOH/water solvent mixture, organic solvent or mixture, EtOH/water, water activity 0.3 (water 0.066 mL, EtOH 0.934 mL)), 8060 µg/mL (≈ 31 mM); in data set [1] (EtOH/water solvent mixture, organic solvent or mixture, EtOH/water, water activity 0.4 (water 0.077 mL, EtOH 0.923 mL)), 7860 µg/mL (≈ 30.2 mM); in data set [1] (EtOH/water solvent mixture, organic solvent or mixture, EtOH/water, water activity 0.5 (water 0.097 mL, EtOH 0.903 mL)) it was 8160 µg/mL (≈ 31.4 mM); in data set [1] (EtOH/water solvent mixture, organic solvent or mixture, EtOH/water, water activity 0.6 (water 0.149 mL, EtOH 0.851 mL)), 6590 µg/mL (≈ 25.3 mM). Besides, the Solubility in data set [1] (EtOH/water solvent mixture, organic solvent or mixture, EtOH/water, water activity 0.7 (water 0.263 mL, EtOH 0.737 mL)) worked out at 6880 µg/mL (≈ 26.4 mM); in data set [1] (EtOH/water solvent mixture, organic solvent or mixture, EtOH/water, water activity 0.8 (water 0.481 mL, EtOH 0.519 mL)), 6560 µg/mL (≈ 25.2 mM); in data set [1] (water, water activity 1.0 (water 1.0 mL, EtOH 0)), 3320 µg/mL (≈ 12.8 mM).
On to `Cc1cc(F)c(C(=O)O)cc1-n1cnc(C2CC2)c1` [Compound of Formula (D) Form I], for which the “moisture uptake (DVS; slightly hygroscopic)” value in data set [2] is “about 0.5%”.
Regarding `Cc1cc(F)c(C(=O)O)cc1-n1cnc(C2CC2)c1.O` [Compound of Formula (D) Hydrate Form I], the “Solubility” value in data set [3] (solvent 2-MeTHF) was found to be 4480 µg/mL; in data set [3] (solvent Acetone), 1990 µg/mL; in data set [3] (solvent DCM), 190 µg/mL; in data set [3] (solvent EtOAc), 730 µg/mL; in data set [3] (solvent EtOH), 6180 µg/mL; in data set [3] (solvent IPA), 2900 µg/mL. For the same compound, the “Solubility” value in data set [3] (solvent IPAc) came to 450 µg/mL; in data set [3] (solvent MeCN), 400 µg/mL; in data set [3] (solvent MeOH) it was 20670 µg/mL; in data set [3] (solvent THF), 11790 µg/mL.
